# Source: ChEMBL document CHEMBL5550140, “Emerging ferroptosis inhibitors as a novel therapeutic strategy for the treatment of neonatal hypoxic-ischemic encephalopathy” (2024)
# System: Mus musculus
# Test: Neuroprotective activity against hypoxia-ischemia brain injured mouse model assessed as reduction in infarct volume at 20 mg/kg, ip measured after 72 hrs by immuno-histochemistry based staining analysis relative to control
# Assay type: functional
# Set-up: scale not given: the % may be the effect or the level left
smiles,measurement,value
Oc1cccnc1NC(c1ccc(Cl)cc1)c1ccc2cccnc2c1O (stereo unspecified),Activity,26.3%
